Results on 16 compounds are retold here after ChEMBL document CHEMBL3352701, “Discovery of a 1,2-bis(3-indolyl)ethane that selectively inhibits the pyruvate kinase of methicillin-resistant Staphylococcus aureus over human isoforms” (Bioorg Med Chem Lett, 2014).

Experiment [1] has as its target T1, Pyruvate kinase PKM (Homo sapiens, UniProt P14618). Kind of experiment: Inhibition of purified human N-terminal His-tagged PK-M1 at 40 uM by LDH-coupled continuous assay.
Target sequence in this assay (P14618 2-531 limits assumed): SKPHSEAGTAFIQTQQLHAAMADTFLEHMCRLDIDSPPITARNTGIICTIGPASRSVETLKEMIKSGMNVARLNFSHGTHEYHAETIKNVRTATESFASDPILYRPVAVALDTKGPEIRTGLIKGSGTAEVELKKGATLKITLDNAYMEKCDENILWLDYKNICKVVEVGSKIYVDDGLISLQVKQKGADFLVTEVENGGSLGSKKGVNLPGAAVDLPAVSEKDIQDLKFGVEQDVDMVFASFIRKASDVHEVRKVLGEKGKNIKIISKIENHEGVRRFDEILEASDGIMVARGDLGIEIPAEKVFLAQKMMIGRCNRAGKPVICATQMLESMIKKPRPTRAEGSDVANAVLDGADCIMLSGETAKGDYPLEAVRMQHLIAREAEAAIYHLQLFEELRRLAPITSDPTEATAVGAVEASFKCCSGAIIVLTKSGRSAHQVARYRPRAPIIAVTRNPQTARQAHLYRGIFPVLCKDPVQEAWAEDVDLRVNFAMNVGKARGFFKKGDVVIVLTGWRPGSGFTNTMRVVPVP
The target of experiment [2] is T2, Pyruvate kinase (Staphylococcus aureus (strain MRSA252)) (UniProt Q6GG09).
T2 sequence (whole entry): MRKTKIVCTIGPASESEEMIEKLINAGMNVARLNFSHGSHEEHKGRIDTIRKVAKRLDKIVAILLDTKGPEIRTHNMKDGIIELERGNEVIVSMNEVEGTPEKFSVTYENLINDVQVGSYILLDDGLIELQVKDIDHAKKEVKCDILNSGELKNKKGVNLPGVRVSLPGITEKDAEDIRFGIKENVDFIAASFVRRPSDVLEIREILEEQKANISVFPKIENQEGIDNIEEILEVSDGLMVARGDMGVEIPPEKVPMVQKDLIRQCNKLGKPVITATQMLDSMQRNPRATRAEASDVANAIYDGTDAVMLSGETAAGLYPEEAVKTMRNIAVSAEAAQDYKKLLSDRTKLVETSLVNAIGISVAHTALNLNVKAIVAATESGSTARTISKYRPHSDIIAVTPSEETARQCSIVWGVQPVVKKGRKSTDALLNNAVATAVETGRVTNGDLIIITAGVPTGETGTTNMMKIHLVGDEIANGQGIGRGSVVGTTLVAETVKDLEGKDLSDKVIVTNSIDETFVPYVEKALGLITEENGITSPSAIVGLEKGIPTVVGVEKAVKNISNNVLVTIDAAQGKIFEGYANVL
The following applies: 40 uM.
Description: Inhibition of purified methicillin-resistant Staphylococcus aureus N-terminal His-tagged pyruvate kinase at 40 uM by LDH-coupled continuous assay

Another experiment concerns the target T3, Pyruvate kinase (Staphylococcus aureus (strain MRSA252), UniProt Q6GG09).
T3 sequence (Q6GG09 whole entry): T2 sequence (whole entry)
Put plainly: Inhibition of purified methicillin-resistant Staphylococcus aureus N-terminal His-tagged pyruvate kinase by LDH-coupled continuous assay.

Experiment [3] has as its target T1, Pyruvate kinase PKM. Kind of experiment: Inhibition of purified human N-terminal His-tagged PK-M2 at 40 uM by LDH-coupled continuous assay.
Target sequence in this assay (P14618 2-531 limits assumed): as the sequence (P14618 2-531 limits assumed) above
Experiment [4] has as its target T4, Pyruvate kinase PKLR (Homo sapiens, UniProt P30613). Kind of experiment: Inhibition of purified human N-terminal His-tagged PK-L at 40 uM by LDH-coupled continuous assay.
Target sequence in this assay (P30613 whole entry, looked up): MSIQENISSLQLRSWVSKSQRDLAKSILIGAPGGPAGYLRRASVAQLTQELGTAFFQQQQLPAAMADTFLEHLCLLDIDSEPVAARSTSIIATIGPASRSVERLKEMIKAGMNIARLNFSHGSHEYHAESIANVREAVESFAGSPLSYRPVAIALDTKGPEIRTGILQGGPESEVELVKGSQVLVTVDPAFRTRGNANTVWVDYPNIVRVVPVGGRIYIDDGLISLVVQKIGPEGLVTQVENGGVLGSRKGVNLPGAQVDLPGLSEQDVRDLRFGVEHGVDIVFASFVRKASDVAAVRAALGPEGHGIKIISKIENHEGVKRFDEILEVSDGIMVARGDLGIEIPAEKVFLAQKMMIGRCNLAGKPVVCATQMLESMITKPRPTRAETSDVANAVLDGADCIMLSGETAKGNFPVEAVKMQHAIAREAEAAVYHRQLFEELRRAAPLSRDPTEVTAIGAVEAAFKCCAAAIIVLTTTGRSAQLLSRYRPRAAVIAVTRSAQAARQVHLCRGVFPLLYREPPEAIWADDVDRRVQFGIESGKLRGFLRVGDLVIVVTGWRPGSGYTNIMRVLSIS
In experiment [5] the target is T4, Pyruvate kinase PKLR. Put plainly: Inhibition of purified human N-terminal His-tagged PK-R at 40 uM by LDH-coupled continuous assay.
Target sequence in this assay (P30613 whole entry, looked up): as above
Experiment [6] addresses T1, Pyruvate kinase PKM. Put plainly: Inhibition of purified human N-terminal His-tagged PK-M2 by LDH-coupled continuous assay.
Target sequence in this assay (P14618 whole entry): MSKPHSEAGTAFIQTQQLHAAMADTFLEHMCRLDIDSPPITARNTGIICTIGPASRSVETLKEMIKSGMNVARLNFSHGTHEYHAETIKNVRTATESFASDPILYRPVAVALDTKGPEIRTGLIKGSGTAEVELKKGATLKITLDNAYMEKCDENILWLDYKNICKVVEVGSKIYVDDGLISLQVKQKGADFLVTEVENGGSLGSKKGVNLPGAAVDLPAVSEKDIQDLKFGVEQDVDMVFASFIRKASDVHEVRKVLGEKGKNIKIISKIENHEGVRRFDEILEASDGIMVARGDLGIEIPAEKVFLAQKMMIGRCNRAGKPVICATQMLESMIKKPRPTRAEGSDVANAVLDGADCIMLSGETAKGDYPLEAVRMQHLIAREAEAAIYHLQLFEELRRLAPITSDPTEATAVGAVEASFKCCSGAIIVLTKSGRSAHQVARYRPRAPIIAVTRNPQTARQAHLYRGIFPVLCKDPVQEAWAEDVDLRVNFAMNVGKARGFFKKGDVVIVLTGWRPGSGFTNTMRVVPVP
Experiment [7] has as its target T1, Pyruvate kinase PKM. Particulars: 10 uM; call rule not given here.
Target sequence in this assay (P14618 2-531 limits assumed): as the sequence (P14618 2-531 limits assumed) above
Experiment [8] deals with T1, Pyruvate kinase PKM. Put plainly: Inhibition of purified human N-terminal His-tagged PK-M1 by LDH-coupled continuous assay.
Target sequence in this assay (P14618 whole entry): as the sequence (P14618 whole entry) above
Experiment [9] deals with T1, Pyruvate kinase PKM. Particulars: 10 uM. This is another data set of the same source.
Target sequence in this assay (P14618 2-531 limits assumed): as the sequence (P14618 2-531 limits assumed) above
Description: Inhibition of purified human N-terminal His-tagged PK-M2 at 10 uM by LDH-coupled continuous assay
Experiment [10] deals with T4, Pyruvate kinase PKLR. The following applies: 10 uM.
Target sequence in this assay (P30613 whole entry, looked up): as the sequence (P30613 whole entry, looked up) above
Description: Inhibition of purified human N-terminal His-tagged PK-R at 10 uM by LDH-coupled continuous assay
Experiment [11] deals with T4, Pyruvate kinase PKLR. Kind of experiment: Inhibition of purified human N-terminal His-tagged PK-L by LDH-coupled continuous assay.
Target sequence in this assay (P30613 whole entry): as the sequence (P30613 whole entry, looked up) above
The target of experiment [12] is T4, Pyruvate kinase PKLR. Particulars: 10 uM. The source holds these as a separate data set.
Target sequence in this assay (P30613 whole entry, looked up): as above
Description: Inhibition of purified human N-terminal His-tagged PK-L at 10 uM by LDH-coupled continuous assay
The target of experiment [13] is T4, Pyruvate kinase PKLR. Kind of experiment: Inhibition of purified human N-terminal His-tagged PK-R by LDH-coupled continuous assay.
Target sequence in this assay (P30613 whole entry): as the sequence (P30613 whole entry, looked up) above
Experiment [14] addresses T2, Pyruvate kinase (Staphylococcus aureus (strain MRSA252)). Kind of experiment: Inhibition of purified methicillin-resistant Staphylococcus aureus N-terminal His-tagged pyruvate kinase at 10 uM by LDH-coupled continuous assay.
Experiment [15] addresses T1, Pyruvate kinase PKM. Kind of experiment: Inhibition of purified human N-terminal His-tagged PK-M1 at 100 uM by LDH-coupled continuous assay.
Target sequence in this assay (P14618 2-531 limits assumed): as the sequence (P14618 2-531 limits assumed) above
The target in experiment [16] is T4, Pyruvate kinase PKLR. Kind of experiment: Inhibition of purified human N-terminal His-tagged PK-R at 100 uM by LDH-coupled continuous assay.
Target sequence in this assay (P30613 whole entry, looked up): as the sequence (P30613 whole entry, looked up) above
For experiment [17], the target named is T1, Pyruvate kinase PKM. Put plainly: Inhibition of purified human N-terminal His-tagged PK-M2 at 100 uM by LDH-coupled continuous assay.
Target sequence in this assay (P14618 2-531 limits assumed): as the sequence (P14618 2-531 limits assumed) above
Experiment [18] addresses T4, Pyruvate kinase PKLR. Kind of experiment: Inhibition of purified human N-terminal His-tagged PK-L at 100 uM by LDH-coupled continuous assay.
Target sequence in this assay (P30613 whole entry, looked up): as the sequence (P30613 whole entry, looked up) above
The target in experiment [19] is T2, Pyruvate kinase (Staphylococcus aureus (strain MRSA252)). Kind of experiment: Inhibition of purified methicillin-resistant Staphylococcus aureus N-terminal His-tagged pyruvate kinase at 100 uM by LDH-coupled continuous assay.
The target of experiment [20] is T1, Pyruvate kinase PKM. Put plainly: Inhibition of purified human N-terminal His-tagged PK-M1 at 50 uM by LDH-coupled continuous assay.
In experiment [21] the target is T4, Pyruvate kinase PKLR. Kind of experiment: Inhibition of purified human N-terminal His-tagged PK-R at 50 uM by LDH-coupled continuous assay.
The target in experiment [22] is T1, Pyruvate kinase PKM. Put plainly: Inhibition of purified human N-terminal His-tagged PK-M2 at 50 uM by LDH-coupled continuous assay.
In experiment [23] the target is T2, Pyruvate kinase (Staphylococcus aureus (strain MRSA252)). Put plainly: Inhibition of purified methicillin-resistant Staphylococcus aureus N-terminal His-tagged pyruvate kinase at 50 uM by LDH-coupled continuous assay.
The target of experiment [24] is T4, Pyruvate kinase PKLR. Kind of experiment: Inhibition of purified human N-terminal His-tagged PK-L at 50 uM by LDH-coupled continuous assay.
For experiment [25], the target named is T1, Pyruvate kinase PKM. Put plainly: Inhibition of purified human N-terminal His-tagged PK-M1 at 150 uM by LDH-coupled continuous assay.
Experiment [26] concerns the target T2, Pyruvate kinase (Staphylococcus aureus (strain MRSA252)). Kind of experiment: Inhibition of purified methicillin-resistant Staphylococcus aureus N-terminal His-tagged pyruvate kinase at 150 uM by LDH-coupled continuous assay.
For experiment [27], the target named is T4, Pyruvate kinase PKLR. Put plainly: Inhibition of purified human N-terminal His-tagged PK-R at 150 uM by LDH-coupled continuous assay.
The target of experiment [28] is T1, Pyruvate kinase PKM. Put plainly: Inhibition of purified human N-terminal His-tagged PK-M2 at 150 uM by LDH-coupled continuous assay.
The target of experiment [29] is T4, Pyruvate kinase PKLR. Kind of experiment: Inhibition of purified human N-terminal His-tagged PK-L at 150 uM by LDH-coupled continuous assay.
Another experiment concerns Staphylococcus aureus. Kind of experiment: Antimicrobial activity against Staphylococcus aureus ATCC 29213 after 24 hrs by CLSI microtiter method. Type of experiment: functional. Particulars: ATCC 29213, 24 h.

Molecules are shown by their SMILES. In brackets after ≈: the same amount, converted by molar mass.

As a reminder, the inhibition is the change of the read-out against control, counted positive when it falls. Usually IC50 stands for the point on the concentration scale where inhibition reaches its midpoint. By MIC is commonly meant the lowest concentration that inhibits growth of the organism. A low value points to greater potency.

As for `N#Cc1ccc2[nH]cc(CCc3c[nH]c4ccccc34)c2c1`, the inhibition at Pyruvate kinase PKM [1] is -0.5%; in experiment [2] it was 82.9%; at Pyruvate kinase PKM [3], 1.1%; against Pyruvate kinase PKLR [4], 62.4%; against Pyruvate kinase PKLR [5], 53.5%. Besides, the IC50 at Pyruvate kinase (read-out: IC50) is 4.2 µM.
As to `CCN(C(C)=O)c1ccc2c(CCc3c[nH]c4ccccc34)c[nH]c2c1`, on Pyruvate kinase (read-out: IC50), the IC50 is 148 µM.
Take `Cc1ccc2[nH]cc(CCc3c[nH]c4ccccc34)c2c1`: the IC50 on Pyruvate kinase (read-out: IC50) turned out to be 32.8 µM.
For the compound `Cc1ccc2c(CCc3c[nH]c4ccccc34)c[nH]c2c1`, the IC50 at Pyruvate kinase (read-out: IC50) amounted to 294 µM.
Take `O=C(C(=O)c1c[nH]c2ccccc12)c1c[nH]c2ccccc12`: at Pyruvate kinase (read-out: IC50), the IC50 was found to be 50.2 µM.
`c1ccc2c(CCc3c[nH]c4ccccc34)c[nH]c2c1`: at Pyruvate kinase (read-out: IC50), the concentration for half-maximal inhibition (IC50) stood at 57.3 µM.
For the compound `O=[N+]([O-])c1ccc2c(CCc3c[nH]c4ccccc34)c[nH]c2c1`, the IC50 at Pyruvate kinase PKM [6] was found to be 54.6 µM; against Pyruvate kinase PKM [8], 95.9 µM; at Pyruvate kinase PKLR [11] it was 21.5 µM; at Pyruvate kinase (read-out: IC50), 0.9 µM; on Pyruvate kinase PKLR [13], 18.2 µM. In addition, the inhibition against Pyruvate kinase PKM [7] is 1.1%; against Pyruvate kinase PKM [9], 2.8%; on Pyruvate kinase PKLR [10], 3%; at Pyruvate kinase PKLR [12] it was 3.3%; in [14], 59.6%.
Regarding `Clc1ccc2c(CCc3c[nH]c4ccccc34)c[nH]c2c1`, the IC50 on Pyruvate kinase (read-out: IC50) was 272 µM.
Turning to `COc1ccc2[nH]cc(CCc3c[nH]c4ccccc34)c2c1`, the 50% inhibitory concentration (IC50) on Pyruvate kinase (read-out: IC50) came out at 38.6 µM.
On to `Clc1ccc2[nH]cc(CCc3c[nH]c4ccccc34)c2c1`, for which the inhibition against Pyruvate kinase PKM [15] was 30.8%; against Pyruvate kinase PKLR [16] it was 95%; on Pyruvate kinase PKM [17], 98.7%; against Pyruvate kinase PKLR [18], 103%; in experiment [19] it was 114%. In addition, the IC50 on Pyruvate kinase (read-out: IC50) worked out at 12.5 µM.
Turning to `FC(F)(F)c1ccc2[nH]cc(CCc3c[nH]c4ccccc34)c2c1`, the inhibition on Pyruvate kinase PKM [15] came out at 36.7%; against Pyruvate kinase PKLR [16], 91.4%; on Pyruvate kinase PKM [17], 95.2%; against Pyruvate kinase PKLR [18] it was 85.4%; in experiment [19], 88.4%. Also, on Pyruvate kinase (read-out: IC50), the IC50 worked out at 13.3 µM.
For the compound `O=[N+]([O-])c1cccc2[nH]cc(CCc3c[nH]c4ccccc34)c12`, the inhibition on Pyruvate kinase PKM [20] was found to be 2.2%; against Pyruvate kinase PKLR [21], 71.8%; on Pyruvate kinase PKM [22] it was 50.1%; in [23] it was 92.8%; at Pyruvate kinase PKLR [24], 75.5%. At Pyruvate kinase (read-out: IC50), the IC50 was 5.7 µM.
As for `COc1ccc2c(CCc3c[nH]c4ccccc34)c[nH]c2c1`, at Pyruvate kinase, the IC50 entry is “Not Active”.
With `Fc1cc(Cl)cc2c(CCc3c[nH]c4ccccc34)c[nH]c12`, the inhibition at Pyruvate kinase PKM [20] is 1.1%; against Pyruvate kinase PKLR [21], 85.4%; against Pyruvate kinase PKM [22], 80.9%; in [23] it was 88.2%; on Pyruvate kinase PKLR [24], 95.7%. The IC50 at Pyruvate kinase (read-out: IC50) is 4.6 µM.
Take `Fc1ccc2[nH]cc(CCc3c[nH]c4ccccc34)c2c1`: the inhibition at Pyruvate kinase PKM [25] came to 55.1%; in [26], 108%; on Pyruvate kinase PKLR [27] it was 99%; against Pyruvate kinase PKM [28], 85.5%; at Pyruvate kinase PKLR [29], 101%. For the same compound, on Pyruvate kinase (read-out: IC50), the IC50 was determined as 19.8 µM.
With `N#Cc1ccc2c(CCc3c[nH]c4ccccc34)c[nH]c2c1`, the IC50 result against Pyruvate kinase was “Not Active”. This compound also showed an MIC with Staphylococcus aureus of 16 µg/mL (≈ 56.1 µM).
